Measured values published in PubChem BioAssay AID493148 (Sanford-Burnham Center for Chemical Genomics, 2011).
Active and inactive are the calls of the source. How the calls were made is not given here.

What follows are compounds tested against Alkaline phosphatase, tissue-nonspecific isozyme (Homo sapiens) (UniProt P05186) (assay: human TNAP enzyme inhibitors, SAR follow-up, selectivity assay for mouse IAP inhibitor project, biochemical (AID 493148)). Conditions: purified enzyme, CDP-Star luminescence, 30 min.
Chain of Alkaline phosphatase, tissue-nonspecific isozyme (Homo sapiens) (P05186 whole entry, looked up): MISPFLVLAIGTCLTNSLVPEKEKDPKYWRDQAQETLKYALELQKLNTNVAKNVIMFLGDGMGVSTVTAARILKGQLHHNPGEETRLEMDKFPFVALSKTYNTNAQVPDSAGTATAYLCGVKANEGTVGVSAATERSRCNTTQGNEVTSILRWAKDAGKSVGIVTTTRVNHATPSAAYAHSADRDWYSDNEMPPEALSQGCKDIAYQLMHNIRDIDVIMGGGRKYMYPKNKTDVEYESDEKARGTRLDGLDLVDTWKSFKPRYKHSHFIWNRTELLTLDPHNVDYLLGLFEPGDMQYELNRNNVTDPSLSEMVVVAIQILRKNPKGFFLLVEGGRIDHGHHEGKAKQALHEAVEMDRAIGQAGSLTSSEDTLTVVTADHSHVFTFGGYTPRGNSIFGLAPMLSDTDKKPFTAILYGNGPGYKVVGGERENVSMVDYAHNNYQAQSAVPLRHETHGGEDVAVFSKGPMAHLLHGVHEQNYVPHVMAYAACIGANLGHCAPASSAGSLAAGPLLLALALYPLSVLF

| SMILES | IC50 |
| --- | --- |
| O=C(CN1C(=O)/C(=C\c2ccco2)SC1=S)Nc1ccccc1C(=O)O | > 100 µM (inactive) |
| Oc1ccc(-c2csc(Nc3cccc4ccccc34)n2)cc1O | 6.4 µM |
| COc1cc(NC(=S)NCCC(c2ccccc2)c2ccccc2)cc(OC)c1 | > 100 µM (inactive) |
| S=C(NCCC(c1ccccc1)c1ccccc1)Nc1ccc(Cl)c(Cl)c1 | > 100 µM (inactive) |
| Cc1cc(=O)oc2cc(NC(=S)NCCC(c3ccccc3)c3ccccc3)ccc12 | > 100 µM (inactive) |
| Cc1cc(NC(=O)CCNS(=O)(=O)c2ccc3[nH]c(=O)oc3c2)ccc1Br | > 100 µM (inactive) |
| CC(C)c1ccccc1NC(=S)NCCC(c1ccccc1)c1ccccc1 | > 100 µM (inactive) |
| COC(=O)c1cc(NC(=S)NCCC(c2ccccc2)c2ccccc2)cc(C(=O)OC)c1 | > 100 µM (inactive) |
| S=C(NCCC(c1ccccc1)c1ccccc1)Nc1ccc(Nc2ccccc2)cc1 | > 100 µM (inactive) |
| Cc1ccc(C)c(NC(=S)NCCC(c2ccccc2)c2ccccc2)c1 | > 100 µM (inactive) |
| S=C(NCCC(c1ccccc1)c1ccccc1)Nc1ccc(Cl)cc1 | > 100 µM (inactive) |
| S=C(NCCC(c1ccccc1)c1ccccc1)Nc1ccccc1 | > 100 µM (inactive) |
| COc1ccc(NC(=S)NCCC(c2ccccc2)c2ccccc2)cc1 | > 100 µM (inactive) |
| Cc1ccc(NC(=S)NCCC(c2ccccc2)c2ccccc2)cc1 | > 100 µM (inactive) |
| Cc1cc(C)cc(NC(=S)NCCC(c2ccccc2)c2ccccc2)c1 | > 100 µM (inactive) |
| Cc1ccc(NC(=S)NCCC(c2ccccc2)c2ccccc2)cc1C | > 100 µM (inactive) |
| FC(F)(F)c1cccc(NC(=S)NCCC(c2ccccc2)c2ccccc2)c1 | > 100 µM (inactive) |
| NS(=O)(=O)c1ccc(NC(=S)NCCC(c2ccccc2)c2ccccc2)cc1 | > 100 µM (inactive) |
| Cc1ccc(NC(=O)CCNS(=O)(=O)c2ccc3[nH]c(=O)oc3c2)cc1C | > 100 µM (inactive) |

| SMILES | IC50 |
| --- | --- |
| Cc1cccc(NC(=S)NCCC(c2ccccc2)c2ccccc2)c1C | > 100 µM (inactive) |
| O=C(CN1C(=O)/C(=C/c2ccco2)SC1=S)Nc1ccc(C(=O)O)cc1 | > 100 µM (inactive) |
| COc1cccc(NC(=S)NCCC(c2ccccc2)c2ccccc2)c1 | > 100 µM (inactive) |
| CCn1c(SCC(=O)c2ccc(O)c(O)c2)nnc1-c1ccccc1OC | > 100 µM (inactive) |
| COc1cc([N+](=O)[O-])ccc1NC(=S)NCCC(c1ccccc1)c1ccccc1 | > 100 µM (inactive) |
| CN1CCC(=NNC(=O)c2cc(O)c(O)c(O)c2)CC1 | > 100 µM (inactive) |
| CC(C)N1CCC(=NNC(=O)c2cc(O)c(O)c(O)c2)CC1 | > 100 µM (inactive) |
| O=[N+]([O-])c1ccc(NC(=S)NCCC(c2ccccc2)c2ccccc2)cc1 | > 100 µM (inactive) |
| COc1ccc(Cl)cc1Nc1nc(-c2ccc(O)c(O)c2)cs1 | > 100 µM (inactive) |
| O=S(=O)(Nc1ncccn1)c1ccc(NC(=S)NCCC(c2ccccc2)c2ccccc2)cc1 | > 100 µM (inactive) |
| CN(C)S(=O)(=O)c1cccc(NC(=S)NCCC(c2ccccc2)c2ccccc2)c1 | > 100 µM (inactive) |
| CCOC(=O)c1ccc(NC(=S)NCCC(c2ccccc2)c2ccccc2)cc1 | > 100 µM (inactive) |
| CCN1CCN(S(=O)(=O)c2ccc3[nH]c(=O)oc3c2)CC1 | > 100 µM (inactive) |
| Fc1ccccc1NC(=S)NCCC(c1ccccc1)c1ccccc1 | > 100 µM (inactive) |
| CC1(c2ccccc2)CC(C)(C)N(C(=S)Nc2ccccc2)c2ccccc21 (stereo not drawn) | > 100 µM (inactive) |
| S=C(NCCC(c1ccccc1)c1ccccc1)Nc1ccc(Cl)cc1Cl | > 100 µM (inactive) |
| Cc1c(Cl)cccc1NC(=S)NCCC(c1ccccc1)c1ccccc1 | > 100 µM (inactive) |
| COc1ccc(Cl)cc1NC(=S)NCCC(c1ccccc1)c1ccccc1 | > 100 µM (inactive) |

Continued, values first:

| IC50 | SMILES |
| --- | --- |
| > 100 µM (inactive) | CCn1cc(CN2CCC(C(=O)Nc3cccc(-c4cccc(OC)c4)c3)CC2)cn1 |
| > 100 µM (inactive) | CC(C)n1cc(CN2CCC(C(=O)Nc3cccc(-c4cccc(F)c4)c3)CC2)cn1 |
| > 100 µM (inactive) | CCn1cc(CN2CCC(C(=O)Nc3cccc(-c4cccc(Cl)c4)c3)CC2)cn1 |
| > 100 µM (inactive) | Cc1c(CN2CCC(C(=O)Nc3cccc(-c4cccc(Cl)c4)c3)CC2)cnn1C |
| > 100 µM (inactive) | C=CCn1cc(CN2CCC(C(=O)Nc3cccc(-c4cccc(F)c4)c3)CC2)c(C)n1 |
| > 100 µM (inactive) | COCc1ccc(CN2CCC(C(=O)Nc3cccc(-c4cccc(Cl)c4)c3)CC2)o1 |
| > 100 µM (inactive) | CCCn1ncc(CN2CCC(C(=O)Nc3cccc(-c4cccc(F)c4)c3)CC2)c1C |
| > 100 µM (inactive) | CCn1nc(C)c(CN2CCC(C(=O)Nc3cccc(-c4cccc(F)c4)c3)CC2)c1C |
| > 100 µM (inactive) | O=C(Nc1cccc(-c2cccc(Cl)c2)c1)C1CCN(C2CCC2)CC1 |
| > 100 µM (inactive) | O=C(Nc1cccc(-c2cccc(Cl)c2)c1)C1CCN(Cc2ccc(CO)o2)CC1 |
| > 100 µM (inactive) | COc1cccc(-c2cccc(NC(=O)C3CCN(Cc4ccc(C)o4)CC3)c2)c1 |
| > 100 µM (inactive) | Cc1c(Cl)cccc1Nc1nc(-c2ccc(O)c(O)c2)cs1 |
| > 100 µM (inactive) | CCn1cc(CN2CCC(C(=O)Nc3cccc(-c4cccc(F)c4)c3)CC2)cn1 |
| > 100 µM (inactive) | Cc1cc(Cl)ccc1NC(=S)NCCC(c1ccccc1)c1ccccc1 |
| > 100 µM (inactive) | O=C(CN1C(=O)/C(=C/c2ccco2)SC1=S)Nc1cccc(C(=O)O)c1 |
| > 100 µM (inactive) | CCn1cc(CN2CCC(C(=O)Nc3cccc(-c4cccc(OC)c4)c3)CC2)c(C)n1 |

| IC50 | SMILES |
| --- | --- |
| > 100 µM (inactive) | CC(C)n1cc(CN2CCC(C(=O)Nc3cccc(-c4cccc(Cl)c4)c3)CC2)cn1 |
| > 100 µM (inactive) | Cn1cc(CN2CCC(C(=O)Nc3cccc(-c4cccc(F)c4)c3)CC2)cn1 |
| > 100 µM (inactive) | Cn1cc(CN2CCC(C(=O)Nc3cccc(-c4cccc(Cl)c4)c3)CC2)cn1 |
| > 100 µM (inactive) | S=C(NCCC(c1ccccc1)c1ccccc1)Nc1cccc(Cl)c1 |
| > 100 µM (inactive) | C=CCn1cc(CN2CCC(C(=O)Nc3cccc(-c4cccc(Cl)c4)c3)CC2)c(C)n1 |
| > 100 µM (inactive) | Fc1ccc(NC(=S)NCCC(c2ccccc2)c2ccccc2)cc1Cl |
| > 100 µM (inactive) | Cc1ccc(CN2CCC(C(=O)Nc3cccc(-c4cccc(F)c4)c3)CC2)o1 |
| > 100 µM (inactive) | Cc1nn(C(C)C)c(C)c1CN1CCC(C(=O)Nc2cccc(-c3cccc(F)c3)c2)CC1 |
| > 100 µM (inactive) | O=C(Nc1cccc(-c2cccc(F)c2)c1)C1CCN(Cc2ccc(CO)o2)CC1 |
| > 100 µM (inactive) | Cc1nn(C)c(Cl)c1CN1CCC(C(=O)Nc2cccc(-c3cccc(F)c3)c2)CC1 |
| 11.4 µM | CCc1ccccc1Nc1nc(-c2ccc(O)c(O)c2)cs1 |
| > 100 µM (inactive) | COc1cccc(-c2cccc(NC(=O)C3CCN(Cc4ccc(CO)o4)CC3)c2)c1 |
| > 100 µM (inactive) | CCn1nc(C)c(CN2CCC(C(=O)Nc3cccc(-c4cccc(Cl)c4)c3)CC2)c1C |
| > 100 µM (inactive) | CCn1ncc(CN2CCC(C(=O)Nc3cccc(-c4cccc(F)c4)c3)CC2)c1C |
| 34.4 µM | COc1ccc(C(=O)CSc2n[nH]c(-c3ccccc3)n2)cc1OC |
